As usually defined, the IC50 is the concentration that inhibits the measured activity by half.

The source of these data is patent US20230210999A1, “TARGETED PROTEASE DEGRADATION (TED) PLATFORM” (EUBULUS BIOTHERAPEUTICS INC., priority 2020, published 2023).

The first assay has as its system U-87MG cells. Nature of the assay: Cell proliferation experiment, U-87MG. Conditions: Homo sapiens; U-87MG cells, 72 h; read-out: Inhibitory activity IC50 of tested compounds on U-87MG cells. It is filed as cell-based. As to the method:
(§1) Reagents: RPMI-1640 medium, McCoy's 5A medium, IMDM medium, MEM medium, L-15 medium, fetal bovine serum. Penicillin-Streptomycin double antibody, trypsin, etc., 2-mercaptoethanol, NEAA, pyruvate, etc.
(§2) The cells were cultured in conventional ways, and the cells should be passed at least 2 generations before plating. Cells at the logarithmic growth phase were collected, prepared into single cell suspensions and counted. The concentration of cells was adjusted to the desired concentration, and cells were inoculated into a 96-well cell culture plate at 100 μl per well. 100 μL of complete medium of the test compound were added to each well, set up 2 duplicate wells for each concentration, and diluted with a 5-fold gradient, and continued to culture for 72 h. All cells were subjected to IC50 test for corresponding samples. The experimental results are shown in Test Example 4.
(§3) The fluorescence intensity of each well was detected using the Alarm blue method, and IC50 was calculated.
(§4) IC50 was calculated according to the following formula:
(§5) Y=Max+(Min−Max)/[1+(X/IC50)×Slope]
(§6) wherein Min, Max and Slope represent the minimum, maximum and slope respectively.
For the compound `CC[C@@H]1C(=O)N(C)c2cnc(Nc3ccc(C(=O)NC4CCN(CCCOCCCN(C)CCC#Cc5cccc6c5CN(C5CCC(=O)NC5=O)C6=O)CC4)cc3OC)nc2N1C1CCCC1` (stereo partly drawn) [Compound 914], the IC50 was 0.1 to 0.5 µM.
`CC[C@@H]1C(=O)N(C)c2cnc(Nc3ccc(C(=O)NC4CCN(CCOCCCNCCCC#Cc5cccc6c5CN(C5CCC(=O)NC5=O)C6=O)CC4)cc3OC)nc2N1C1CCCC1` (stereo partly drawn) [Compound 915]: the IC50 was 0.1 to 0.5 µM.
With `CC[C@@H]1C(=O)N(C)c2cnc(Nc3ccc(C(=O)NC4CCN(CCOCCCN(C)CCC#Cc5cccc6c5CN(C5CCC(=O)NC5=O)C6=O)CC4)cc3OC)nc2N1C1CCCC1` (stereo partly drawn) [Compound 916], the IC50 lay in the range of 0.1 to 0.5 µM.
The same measure, in the same setting: as for `CC[C@@H]1C(=O)N(C)c2cnc(Nc3ccc(C(=O)NC4CCN(CCCOCCCNCCCC#Cc5cccc6c5CN(C5CCC(=O)NC5=O)C6=O)CC4)cc3OC)nc2N1C1CCCC1` (stereo partly drawn) [Compound 917], the figure is 0.1 to 0.5 µM; as for `CC[C@@H]1C(=O)N(C)c2cnc(Nc3ccc(C(=O)NC4CCN(CCCOCCNCCCC#Cc5cccc6c5CN(C5CCC(=O)NC5=O)C6=O)CC4)cc3OC)nc2N1C1CCCC1` (stereo partly drawn) [Compound 918], 0.1 to 0.5 µM; as for `CC[C@@H]1C(=O)N(C)c2cnc(Nc3ccc(C(=O)NC4CN(CCCOCCCNCCC#Cc5cccc6c5CN(C5CCC(=O)NC5=O)C6=O)C4)cc3OC)nc2N1C1CCCC1` (stereo partly drawn) [Compound 931], 0.5 to 1 µM.

The subject of the next assay is Daudi cells. The experiment in a line: Cell proliferation experiment, Daudi. Format: cell-based, human. Conditions: Homo sapiens, Daudi, 72 h, Daudi cells, 72 h; read-out: Inhibitory activity IC50 of tested compounds on Daudi cells. The essentials:
(§7)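 Viability measured by Alamar blue fluorescence after 72 h culture with compound (5-fold serial dilutions, two wells each) added to log-phase cells. IC50 derived from a Min/Max/Slope logistic equation.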
For `CC[C@@H]1C(=O)N(C)c2cnc(Nc3ccc(C(=O)NC4CCN(CCCOCCCN(C)CCC#Cc5cccc6c5CN(C5CCC(=O)NC5=O)C6=O)CC4)cc3OC)nc2N1C1CCCC1` (stereo partly drawn) [Compound 914], the IC50 is no more than 0.1 µM.
`CC[C@@H]1C(=O)N(C)c2cnc(Nc3ccc(C(=O)NC4CCN(CCOCCCNCCCC#Cc5cccc6c5CN(C5CCC(=O)NC5=O)C6=O)CC4)cc3OC)nc2N1C1CCCC1` (stereo partly drawn) [Compound 915]: the IC50 is no more than 0.1 µM.
Still for that read-out and setting: as for `CC[C@@H]1C(=O)N(C)c2cnc(Nc3ccc(C(=O)NC4CCN(CCOCCCN(C)CCC#Cc5cccc6c5CN(C5CCC(=O)NC5=O)C6=O)CC4)cc3OC)nc2N1C1CCCC1` (stereo partly drawn) [Compound 916], the figure is no more than 0.1 µM; as for `CC[C@@H]1C(=O)N(C)c2cnc(Nc3ccc(C(=O)NC4CCN(CCCOCCCNCCCC#Cc5cccc6c5CN(C5CCC(=O)NC5=O)C6=O)CC4)cc3OC)nc2N1C1CCCC1` (stereo partly drawn) [Compound 917], no more than 0.1 µM.
For `CC[C@@H]1C(=O)N(C)c2cnc(Nc3ccc(C(=O)NC4CCN(CCCOCCNCCCC#Cc5cccc6c5CN(C5CCC(=O)NC5=O)C6=O)CC4)cc3OC)nc2N1C1CCCC1` (stereo partly drawn) [Compound 918], the IC50 is no more than 0.1 µM.
On the same count and under the same terms, the result for `CC[C@@H]1C(=O)N(C)c2cnc(Nc3ccc(C(=O)NC4CN(CCCOCCCNCCC#Cc5cccc6c5CN(C5CCC(=O)NC5=O)C6=O)C4)cc3OC)nc2N1C1CCCC1` (stereo partly drawn) [Compound 931] reads 0.1 to 1 µM.

For another assay, the system named is MV4;11 cells. Nature of the assay: Cell proliferation experiment (Alamar blue, 72 h), MV4;11. As to conditions: Homo sapiens, MV4-11, 72 h, MV4;11 cells, 72 h; read-out: Inhibitory activity IC50 of tested compounds on MV4;11 cells. It is filed as cell-based, human. Put shortly:
as §7
In general terms: The colour change of resazurin is a common sign of viable cells or microbes.
On to `CC[C@@H]1C(=O)N(C)c2cnc(Nc3ccc(C(=O)NC4CCN(CCCOCCCN(C)CCC#Cc5cccc6c5CN(C5CCC(=O)NC5=O)C6=O)CC4)cc3OC)nc2N1C1CCCC1` (stereo partly drawn) [Compound 914], for which the IC50 was no more than 0.1 µM.
As for `CC[C@@H]1C(=O)N(C)c2cnc(Nc3ccc(C(=O)NC4CCN(CCOCCCNCCCC#Cc5cccc6c5CN(C5CCC(=O)NC5=O)C6=O)CC4)cc3OC)nc2N1C1CCCC1` (stereo partly drawn) [Compound 915], the half-maximal inhibitory concentration (IC50) was no more than 0.1 µM.
On the same count and under the same terms, as for `CC[C@@H]1C(=O)N(C)c2cnc(Nc3ccc(C(=O)NC4CCN(CCOCCCN(C)CCC#Cc5cccc6c5CN(C5CCC(=O)NC5=O)C6=O)CC4)cc3OC)nc2N1C1CCCC1` (stereo partly drawn) [Compound 916], the figure is no more than 0.1 µM.
Take `CC[C@@H]1C(=O)N(C)c2cnc(Nc3ccc(C(=O)NC4CCN(CCCOCCCNCCCC#Cc5cccc6c5CN(C5CCC(=O)NC5=O)C6=O)CC4)cc3OC)nc2N1C1CCCC1` (stereo partly drawn) [Compound 917]: the IC50 is no more than 0.1 µM.
Same read-out and setting: as for `CC[C@@H]1C(=O)N(C)c2cnc(Nc3ccc(C(=O)NC4CCN(CCCOCCNCCCC#Cc5cccc6c5CN(C5CCC(=O)NC5=O)C6=O)CC4)cc3OC)nc2N1C1CCCC1` (stereo partly drawn) [Compound 918], the figure is no more than 0.1 µM; as for `CC[C@@H]1C(=O)N(C)c2cnc(Nc3ccc(C(=O)NC4CN(CCCOCCCNCCC#Cc5cccc6c5CN(C5CCC(=O)NC5=O)C6=O)C4)cc3OC)nc2N1C1CCCC1` (stereo partly drawn) [Compound 931], no more than 0.1 µM.

A further assay relates to HT-29 cells. Nature of the assay: Cell proliferation experiment, HT-29. As to conditions: Homo sapiens; HT-29 cells, 72 h; read-out: Inhibitory activity IC50 of tested compounds on HT-29 cells. It is filed as cell-based. As to the method:
as §1, §2, §3, §4, §5, §6
Take `CC[C@@H]1C(=O)N(C)c2cnc(Nc3ccc(C(=O)NC4CCN(CCCOCCCN(C)CCC#Cc5cccc6c5CN(C5CCC(=O)NC5=O)C6=O)CC4)cc3OC)nc2N1C1CCCC1` (stereo partly drawn) [Compound 914]: the IC50 was no more than 0.3 µM.
As for `CC[C@@H]1C(=O)N(C)c2cnc(Nc3ccc(C(=O)NC4CCN(CCOCCCNCCCC#Cc5cccc6c5CN(C5CCC(=O)NC5=O)C6=O)CC4)cc3OC)nc2N1C1CCCC1` (stereo partly drawn) [Compound 915], the IC50 fell in the range of 0.3 to 1 µM.
The same measure, in the same setting: as for `CC[C@@H]1C(=O)N(C)c2cnc(Nc3ccc(C(=O)NC4CCN(CCOCCCN(C)CCC#Cc5cccc6c5CN(C5CCC(=O)NC5=O)C6=O)CC4)cc3OC)nc2N1C1CCCC1` (stereo partly drawn) [Compound 916], the figure is no more than 0.3 µM; as for `CC[C@@H]1C(=O)N(C)c2cnc(Nc3ccc(C(=O)NC4CCN(CCCOCCCNCCCC#Cc5cccc6c5CN(C5CCC(=O)NC5=O)C6=O)CC4)cc3OC)nc2N1C1CCCC1` (stereo partly drawn) [Compound 917], 0.3 to 1 µM.
On to `CC[C@@H]1C(=O)N(C)c2cnc(Nc3ccc(C(=O)NC4CCN(CCCOCCNCCCC#Cc5cccc6c5CN(C5CCC(=O)NC5=O)C6=O)CC4)cc3OC)nc2N1C1CCCC1` (stereo partly drawn) [Compound 918], for which the IC50 lay within 0.3 to 1 µM.
Still for that read-out and setting: as for `CC[C@@H]1C(=O)N(C)c2cnc(Nc3ccc(C(=O)NC4CN(CCCOCCCNCCC#Cc5cccc6c5CN(C5CCC(=O)NC5=O)C6=O)C4)cc3OC)nc2N1C1CCCC1` (stereo partly drawn) [Compound 931], the figure is greater than 1 µM.

The next assay deals with NCIH82 cells. Nature of the assay: Cell proliferation experiment, NCI-H82. Conditions: Homo sapiens, NCI-H82, 72 h, NCIH82 cells, 72 h; read-out: Inhibitory activity IC50 of tested compounds on NCIH82 cells. Format: cell-based, human. The essentials:
as §7
With `CC[C@@H]1C(=O)N(C)c2cnc(Nc3ccc(C(=O)NC4CCN(CCCOCCCN(C)CCC#Cc5cccc6c5CN(C5CCC(=O)NC5=O)C6=O)CC4)cc3OC)nc2N1C1CCCC1` (stereo partly drawn) [Compound 914], the IC50 is no more than 1 µM.
The same measure, in the same setting: as for `CC[C@@H]1C(=O)N(C)c2cnc(Nc3ccc(C(=O)NC4CCN(CCOCCCNCCCC#Cc5cccc6c5CN(C5CCC(=O)NC5=O)C6=O)CC4)cc3OC)nc2N1C1CCCC1` (stereo partly drawn) [Compound 915], the figure is no more than 1 µM; as for `CC[C@@H]1C(=O)N(C)c2cnc(Nc3ccc(C(=O)NC4CCN(CCOCCCN(C)CCC#Cc5cccc6c5CN(C5CCC(=O)NC5=O)C6=O)CC4)cc3OC)nc2N1C1CCCC1` (stereo partly drawn) [Compound 916], no more than 1 µM.
For the compound `CC[C@@H]1C(=O)N(C)c2cnc(Nc3ccc(C(=O)NC4CCN(CCCOCCCNCCCC#Cc5cccc6c5CN(C5CCC(=O)NC5=O)C6=O)CC4)cc3OC)nc2N1C1CCCC1` (stereo partly drawn) [Compound 917], the IC50 was no more than 1 µM.
Same read-out and setting: the result for `CC[C@@H]1C(=O)N(C)c2cnc(Nc3ccc(C(=O)NC4CCN(CCCOCCNCCCC#Cc5cccc6c5CN(C5CCC(=O)NC5=O)C6=O)CC4)cc3OC)nc2N1C1CCCC1` (stereo partly drawn) [Compound 918] reads no more than 1 µM.
For the compound `CC[C@@H]1C(=O)N(C)c2cnc(Nc3ccc(C(=O)NC4CN(CCCOCCCNCCC#Cc5cccc6c5CN(C5CCC(=O)NC5=O)C6=O)C4)cc3OC)nc2N1C1CCCC1` (stereo partly drawn) [Compound 931], the half-maximal inhibitory concentration (IC50) is no more than 1 µM.
